Assays:
bile flow = conditions: rats; cited from earlier work
[1] = system: human hepatoma cell line HepG2; conditions: HepG2 cells incubated with compound; previous studies; cited from earlier work
Primary rat hepatocytes = assay: MTS/PMS cell viability (hepatotoxicity) assay, 24-hour exposure; type: cell-based; conditions: Hepatocyte, 9-point dilution series, read-out: IC50 (cell viability, formazan absorbance as percent of untreated control)
Description: To measure the viability of hepatocytes after plating, an aqueous CellTiter Non-radioactive Cell Proliferation Assay may be used (Promega, Madison, Wis.). This assay can also be used to measure the hepatoxicity of a test compound.
In one example of the assay, hepatoxicity is determined by assaying rat hepatocytes for viability following a 24-hour exposure to a 9-point dilution series of compound (to allow assessment of dose). Cell viability is determined by measuring the absorbance of formazon, a product formed by the bioreduction of MTS/PMS, commercially available reagents. […]
With reference to FIG. 6, in a sterile 2 mL v-bottom assay block, dispense 2.5 μl of compound at 400× highest desired concentration to wells in column 3, rows B through G. (six different compounds per block, one for each row, edge wells are not used due to evaporation). […] Next, add 250 μL of media containing 0.2% Triton X-100 to column 2, rows E, F, and G. ODs (optical density or absorbance) from this well will be used to subtract out for background absorbance of dead cells and vehicle. […]
Day 3—MTS Addition and OD Reading
A. After 24 hours of incubation with drug, remove plates from incubator and add 40 μl MTS/PMS to each well. […] Read ODs at 490 nm after a 5 second shaking cycle in a ninety-six well spectrophotometer. […]

Molecule	Nile Red binding (lipid accumulation) [1]	also measured
C=C1[C@@H](C)[C@H]2[C@H](Cc3ccccc3)NC(=O)[C@]23OC(=O)/C=C/[C@H](O)CCC[C@@H](C)C/C=C/[C@H]3[C@@H]1O [cytochalasin B]		effect on bile flow (bile flow): prompt arrest of bile flow
CCCC(CCC)C(=O)O [valproic acid]	increased Nile Red binding	
O=c1ccc2ccccc2o1 [Coumarin]		IC50 (Primary rat hepatocytes): ~53 µM
estrogen	increased Nile Red binding	
CCSCC[C@H](N)C(=O)O [ethionine]	increased Nile Red binding	

From patent US7817840B2, “Predicting hepatotoxicity using cell based assays” (Cytokinetics, Inc., priority 2003, dated 2010)
